Data as given in PubChem BioAssay (NCI).
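How tested: cells in 96-well plates exposed to compound for 48 hours at five concentrations. GI50: concentration for 50% inhibition of growth. TGI marks complete inhibition of growth.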

Tests used:
Assay in all cases: growth of human tumour cells (NCI), 48 h
DMS 273 small cell lung = tested on: DMS 273 small cell lung
HCC-2998 colon = tested on: HCC-2998 colon
HS 578T breast = tested on: HS 578T breast
HT29 colon = tested on: HT29 colon
KM20L2 colon = tested on: KM20L2 colon
LXFL 529 NSCLC = tested on: LXFL 529 NSCLC
MCF7 breast = tested on: MCF7 breast
MDA-MB-435 = tested on: MDA-MB-435
SNB-78 CNS = tested on: SNB-78 CNS
T-47D breast = tested on: T-47D breast
XF 498 CNS = tested on: XF 498 CNS

Compound	TGI (DMS 273 small cell lung) [µM]	TGI (HCC-2998 colon) [µM]	TGI (HS 578T breast) [µM]	TGI (HT29 colon) [µM]	TGI (KM20L2 colon) [µM]	TGI (LXFL 529 NSCLC) [µM]	TGI (MCF7 breast) [µM]	TGI (MDA-MB-435) [µM]	TGI (SNB-78 CNS) [µM]	TGI (T-47D breast) [µM]	TGI (XF 498 CNS) [µM]	GI50 (HCC-2998 colon) [µM]	GI50 (HS 578T breast) [µM]	GI50 (HT29 colon) [µM]	GI50 (MCF7 breast) [µM]	GI50 (MDA-MB-435) [µM]	GI50 (T-47D breast) [µM]
CCCCCCCCCCCCCCCC(=O)OCC(C[As](=O)(O)O)OC(=O)CCCCCCCCCCCCCCC (stereo not drawn)	> 100	> 100	> 100	> 100	> 100	> 100	> 100	> 100	80.8	> 100	70.9	–	–	–	–	–	–
O=C1C2C3C=C4c5ccccc5N(c5ccccc5)C4(C2C(=O)N1c1ccc([N+](=O)[O-])cc1)[C@H]1C(=O)N(c2ccc([N+](=O)[O-])cc2)C(=O)[C@@H]31 (stereo partly drawn)	> 100	> 100	–	> 100	> 100	–	–	–	> 100	–	–	–	–	–	–	–	–
c1ccc(C2N3CCCCC3[C@@H]3c4[nH]c5ccccc5c4CCN23)nc1 (stereo partly drawn)	> 100	–	–	> 100	> 100	> 100	–	–	> 100	–	–	–	–	–	–	–	–
[N-]=[N+]=C1C(=O)NN=C1c1ccccc1	> 100	> 100	–	> 100	> 100	> 100	–	–	–	–	> 100	–	–	–	–	–	–
CCOC(=O)C1SC(=Nc2ccc(C)c(C)c2)N=C1C (stereo not drawn)	> 100	> 100	–	> 100	> 100	> 100	–	–	–	–	> 100	–	–	–	–	–	–
Cc1cc(N(CCC#N)CCC#N)ccc1/C=C(\NC(=O)/C=C/c1ccccc1)C(N)=O	> 100	> 100	–	> 100	> 100	> 100	–	–	> 100	–	> 100	–	–	–	–	–	–
CCOC(=O)C(=O)Nc1ccccc1CC	–	> 100	–	> 100	–	> 100	–	–	–	–	> 100	–	–	–	–	–	–
O=C1c2ccccc2C(=O)C1(O)c1c[nH]c2ccccc12	–	–	–	> 100	> 100	> 100	–	–	> 100	–	> 100	–	–	–	–	–	–
C=C(C)CCN[Si](c1ccccc1)(c1ccccc1)C(C)(C)C	37.6	43.3	–	30.2	35.3	–	–	–	79	–	40.9	–	–	–	–	–	–
CCOC(=O)CCC(=O)C1c2cccc(O)c2C(=O)c2c(O)cc(C)cc21 (stereo not drawn)	2.13	2.09	–	7.17	3.51	1.75	–	–	1.9	–	0.52	–	–	–	–	–	–
COc1ccc(C2=C(Cl)c3cc(OC)c(OC)cc3C2Cl)cc1 (stereo not drawn)	39.5	28.1	76.5	28.8	30.5	28.4	22.8	28.5	49.3	35.1	–	–	–	–	–	–	–
COC(=O)C(CC(=O)Nc1ccc(C)cc1)C(=O)C(=O)Nc1c(C(C)C)cccc1C(C)C (stereo not drawn)	–	> 100	–	–	> 100	> 100	–	–	> 100	–	> 100	–	–	–	–	–	–
COc1c(C(=O)/C=C/c2ccccc2)c(O)cc2occc12	–	14.3	8.36	35.6	–	–	17.2	13.2	–	32.4	–	3.76	2.76	6.34	3.52	3.21	10.5
CC12OC(C(=O)C13CC3)C1C(=O)c3ccc4c(ccc5ccccc54)c3C(=O)C12 (stereo not drawn)	–	> 100	> 100	> 100	–	–	> 100	> 100	–	98.9	–	20.4	42.2	55.9	23.1	35.2	25.7
NS(=O)(=O)c1ccc(-c2ccc3c(NC(=O)C4CC4)n[nH]c3c2)cc1	–	> 25	> 25	> 25	–	–	> 25	> 25	–	> 25	–	> 25	> 25	> 25	> 25	> 25	> 25
CCOC(=O)N[C@@H]1C(CC(=O)OC)O[C@H]2OC(C)(C)O[C@H]21 (stereo partly drawn)	> 100	> 100	–	> 100	> 100	> 100	–	–	> 100	–	> 100	–	–	–	–	–	–
CC(=O)O[C@H]1CCC2[C@@H]3CC[C@]4(C)CC(=O)C=C[C@]4(C)C3CC[C@@]21C (stereo partly drawn)	31.7	> 88.5	–	32.8	43.5	28	–	94.7	22.3	–	–	–	–	–	–	–	–
Clc1cc(Cl)c2ns[s+]c2c1Cl	> 100	–	–	> 100	> 100	> 100	–	–	14.8	–	> 100	–	–	–	–	–	–
